System: C57 B16J mice
Test: Tail suspension test (animal model of depression)
Format: in vivo
Settings: CBG dose greater than or equal to 40 mg/kg ip, tested 30 minutes after injection for six minutes
Method: A substantially pure extract of cannabigerol, purified from a cannabis plant extract, was tested for its ability to modify the behaviour of mice during an open field test and a tail suspension test (Steru et al., 1985, Psychopharmacology (Berl.) 85(3), 367-370). The CBG extract was compared to a known antidepressant imipramine.
The experiment used groups of 7-8 C57 B16J mice and these were tested with doses of 0, 5, 10, 20, 40, 60 and 80 mg/kg ip of CBG extract. The dose of imipramine that was used was the standard dose that is known to produce an anti-depressant effect of 30 mg/kg ip. One group of animals were administered a vehicle control.
The animals were subjected to a tail suspension test whereby a sound-attenuated chamber with a titanium bar mounted 15 cm from the floor was used. An opto-electronic sensor was mounted in a white plastic column and positioned from the mounting bar. An infra-red light transmitted from an LED onto the animal. If the animal moved, the amount of light collected by the phototransistor would increase or decrease depending on the size of the movement. […]
The mouse was suspended from a bar by the tip of its tail using adhesive tape so that the tip of their nose was 2 cm from the floor of the chamber. The total number of movements and total amount of time spent immobile were recorded.

CCCCCc1cc(O)c(C/C=C(\C)CCC=C(C)C)c(O)c1 [CBG, cannabigerol]
amount of struggling in the tail suspension test compared with vehicle control: significantly increased
